Where “and” joins values, the source holds several entries; their conditions need not be identical. Equal entries are not always repeated.
Biological target: T1, full length AKT1 (Homo sapiens, UniProt P31749)
T1 construct: Full-length human AKT1 gene was amplified by PCR; His6 tag from the pFastBacHTb vector (own knowledge: N-terminal His6, spacer and TEV site; supported by the nickel purification) (N); made in house; host or cells: baculovirus-infected insect cells (virus produced in Sf9; T. ni cells infected; purification text says sf9 cells)
T1 sequence (P31749 whole entry): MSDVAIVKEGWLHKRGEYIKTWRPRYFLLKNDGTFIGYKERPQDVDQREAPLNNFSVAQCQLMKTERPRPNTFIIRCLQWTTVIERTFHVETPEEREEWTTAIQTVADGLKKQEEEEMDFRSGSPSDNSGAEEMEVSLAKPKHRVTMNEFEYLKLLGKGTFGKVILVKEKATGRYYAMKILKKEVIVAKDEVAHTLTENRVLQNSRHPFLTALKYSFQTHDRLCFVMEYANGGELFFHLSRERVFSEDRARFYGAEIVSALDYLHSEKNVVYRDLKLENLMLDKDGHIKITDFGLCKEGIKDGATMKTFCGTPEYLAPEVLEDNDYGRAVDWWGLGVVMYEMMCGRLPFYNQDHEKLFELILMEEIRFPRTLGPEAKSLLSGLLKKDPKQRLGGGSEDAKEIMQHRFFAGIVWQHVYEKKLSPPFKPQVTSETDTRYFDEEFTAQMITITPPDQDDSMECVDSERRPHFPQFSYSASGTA
Experiment: Full-length AKT enzyme assay (substrate phosphorylation, SPA)
Assay type: biochemical
Conditions: in at least one experimental run; 10 nM activated AKT enzyme, 4 uM ATP; pIC50 = -log(IC50), IC50 in molar units; read-out: pIC50 value against full length AKT1 (converted)
Description: Cloning of Full-Length Human (FL) AKT1:
Full-length human AKT1 gene was amplified by PCR from a plasmid containing myristylated-AKT1-ER (gift from Robert T. Abraham, Duke University under MTA, described in Klippel et al. in Molecular and Cellular Biology 1998 Volume 18 p. 5699) using the 5′ primer: SEQ. ID NO: 2 5′ […] 3′ and the 3′ primer: SEQ. ID NO: 3 […] 3′. The 5′ primer included a BamHI site and the 3′ primer included an XhoI site for cloning purposes. The resultant PCR product was subcloned in pcDNA3 as a BamHI/XhoI fragment. A mutation in the sequence (TGC) coding for a Cysteine^25 was converted to the wild-type AKT1 sequence (CGC) coding for an Arginine^25 by site-directed mutagenesis using the QuikChange® Site Directed Mutagenesis Kit (Stratagene). The AKT1 mutagenic primer: SEQ. ID NO: 4 5′ […] and selection primer: SEQ. […] For expression/purification purposes, AKT1 was isolated as a BamHI/XhoI fragment and cloned into the BamHI/XhoI sites of pFastbacHTb (Invitrogen).
Expression of FL Human AKT1:
Expression was done using the BAC-to-BAC Baculovirus Expression System from Invitrogen (catalog #10359-016). […]
Compounds of the present invention were tested for AKT 1, 2, and 3 protein serine kinase inhibitory activity in substrate phosphorylation assays. […] Substrate phosphorylation was detected by the following procedure. […]

| Compound | IC50 |
| --- | --- |
| Cn1nccc1-c1csc(C(=O)N[C@H](CN)Cc2cccc(F)c2)n1 [Example 1, N-{(1S)-2-amino-1-[(3-fluorophenyl)methyl]ethyl}-4-(1-methyl-1H-pyrazol-5-yl)-1,3-thiazole-2-carboxamide] | ≤ 501 nM and 501 nM |
| Cn1nccc1-c1csc(C(=O)NC(CN)Cc2ccccc2)n1 (centres unmarked) [Example 3, N-[2-amino-1-(phenylmethyl)ethyl]-4-(1-methyl-1H-pyrazol-5-yl)-1,3-thiazole-2-carboxamide] | ≤ 501 nM |

From patent US20110160256A1, “INHIBITORS OF AKT ACTIVITY” (priority 2008, published 2011)
